Results published in publication PMC3431135, “Pharmacological Evaluation and Docking Studies of 3-Thiadiazolyl- and Thioxo-1,2,4-triazolylcoumarin Derivatives as Cholinesterase Inhibitors” (ISRN Pharmacology, 2012).
Read-outs that look alike come from different tables or passages of the source.

What was measured:
[1] = target: T1, AChE from electrophorus electricus (EeAChE) (Electrophorus electricus, UniProt O42275); experiment: biochemical
T1 construct: Acetylcholinesterase (AChE) (EC 3.1.1.7, type VI-S from Electric Eel); purchased Sigma-Aldrich (Steinheim, Germany) type VI-S; host or cells: electric eel (natural source)
Protocol: (§1) Acetylcholinesterase (AChE) (EC 3.1.1.7, type VI-S from Electric Eel), butyrylcholinesterase (BChE) (EC 3.1.1.8, from horse serum). AChE and BChE were also isolated from rabbit brain and serum, respectively.
(§2) The inhibitory activities of coumarin derivatives were measured quantitatively by Ellman's method and performed with some modifications as in Ingkaninan et al. method by using 96-microliter well plate. Series of newly synthesized coumarin derivatives were tested as AChE and BChE inhibitors. Initially, each compound was dissolved in DMSO (end concentration of DMSO was less than 1% in assay) and tested at a final concentration of 1 mM or 10 μL of DMSO (as negative control) in wells for initial screening. […] Reaction mixture comprised of 50 μL of 3 mM DTNB (5,5′-dithiobis(2-nitrobenzoic acid)) in assay buffer, 10 μL of test compound, and 10 μL of AChE (0.031 IU/mL) or BChE (0.5 IU/mL). This mixture was preincubated at 25°C for 10 min. After preincubation, enzymatic reaction was started by addition of 10 μL of 10 mM MBTCCl (butyrylthiocholine chloride) or ATCI (acetylthiocholine iodide) according to the respective enzyme and mixture was incubated again for 15 min. […] Enzyme dilution buffer consisted of 50 mM Tris-HCl containing 0.1% (w/v) BSA (pH 8). The effect of DMSO on activity of enzyme was subtracted by a negative control containing DMSO, instead of inhibitor. Each concentration was analyzed in triplicate and Ki values were calculated from IC50 values by using a nonlinear curve fitting program PRISM 5.0 (GraphPad, San Diego, California, USA).

[2] = target: T2, BChE from rabbit serum (rBChE) (Oryctolagus cuniculus, UniProt P21927); experiment: biochemical
T2 construct: BChE was obtained from rabbit blood serum by applying the techniques of centrifugation; from tissue; host or cells: rabbit blood serum
Protocol: as §1
(§3) AChE was isolated from rabbit brain. Heads were decapitated and brains were thawed and homogenized for 30 sec in 2.5 volumes of 1 mM EDTA, 0.32 M ice cold sucrose, 10 μM tetracain (pH7.0). The homogenates were centrifuged at 105,000 ×g for 60 min (4°C). The supernatants were removed and pellets were again homogenized in same volume of 0.2% triton phosphate buffer. After centrifugation, the supernatants were again removed and pellets were rehomogenized for 10 sec in 2.5 volumes of 1% triton phosphate buffer. […] BChE was obtained from rabbit blood serum by applying the techniques of centrifugation. The purified enzymes were stored at –80°C.
as §2

[3] = target: T3, rabbit AChE (rAChE), isolated from rabbit brain (Oryctolagus cuniculus, UniProt Q29499); experiment: biochemical
T3 construct: AChE was isolated from rabbit brain; from tissue; host or cells: rabbit brain
Protocol: as §1, §3, §2

[4] = target: T4, BChE from horse serum (hBChE) (Equus caballus, UniProt P81908); experiment: biochemical; format: biochemical
T4 construct: butyrylcholinesterase (BChE) (EC 3.1.1.8, from horse serum); purchased Sigma-Aldrich (Steinheim, Germany); host or cells: horse serum (natural source)
Protocol: as §1, §2

[5] = system: AChE; experiment: Kinetic characterization of AChE inhibition (Lineweaver-Burk); format: biochemical; settings: Lineweaver-Burk plots; inhibitor 0–100 nM; substrate ATCI
Protocol: (§4) […]. […] As Km value was increasing and value of Vmax remained almost same in the presence or absence of inhibitor, indication of competitive type of inhibitory mechanism against AChE and BChE.
(§5) Kinetic characterization of AChE and BChE was performed by using Ellman's method. […]. Enzyme kinetic characterization studies were performed under same incubation conditions as described above by using ATCI and BTCCl as substrates and DTNB was used as chromophoric reagent. A parallel control with no inhibitor in the mixture was added for comparison. Each concentration was analyzed in triplicate; and Lineweaver-Burk (1/V versus 1/[S]) plot was constructed using Prism software.

[6] = system: BChE; experiment: Kinetic characterization of BChE inhibition (Lineweaver-Burk); format: biochemical; settings: Lineweaver-Burk plots; inhibitor 0–5 nM; substrate BTCCl
Protocol: as §4, §5

[7] = mean ± SEM of three experiments, Ki calculated from IC50, substrate ATCI, read-out: EeAChE Ki ± SEM
[8] = rabbit serum BChE, mean ± SEM of three experiments, Ki calculated from IC50, substrate BTCCl, read-out: rBChE Ki ± SEM
[9] = mean ± SEM of three experiments, Ki calculated from IC50, substrate ATCI, read-out: rAChE Ki ± SEM
[10] = horse serum BChE, mean ± SEM of three experiments, Ki calculated from IC50, substrate BTCCl, read-out: hBChE Ki ± SEM

T2 sequence (P21927 9-581): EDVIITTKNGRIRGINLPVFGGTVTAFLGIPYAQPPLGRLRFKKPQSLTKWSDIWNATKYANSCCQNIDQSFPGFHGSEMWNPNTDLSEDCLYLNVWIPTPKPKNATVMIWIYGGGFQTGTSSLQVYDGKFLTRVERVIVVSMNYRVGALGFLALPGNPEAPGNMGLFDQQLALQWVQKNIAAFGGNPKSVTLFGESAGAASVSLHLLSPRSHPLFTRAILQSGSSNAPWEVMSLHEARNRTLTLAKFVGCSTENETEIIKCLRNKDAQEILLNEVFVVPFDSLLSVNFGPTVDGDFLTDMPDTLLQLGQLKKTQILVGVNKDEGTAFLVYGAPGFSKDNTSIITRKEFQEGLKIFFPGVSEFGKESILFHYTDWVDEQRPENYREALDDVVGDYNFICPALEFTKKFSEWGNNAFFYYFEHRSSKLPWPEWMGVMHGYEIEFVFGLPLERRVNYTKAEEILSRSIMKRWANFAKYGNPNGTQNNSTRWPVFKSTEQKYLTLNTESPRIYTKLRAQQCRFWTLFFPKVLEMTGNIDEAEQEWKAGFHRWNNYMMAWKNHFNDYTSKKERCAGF
T1 sequence (O42275 24-633): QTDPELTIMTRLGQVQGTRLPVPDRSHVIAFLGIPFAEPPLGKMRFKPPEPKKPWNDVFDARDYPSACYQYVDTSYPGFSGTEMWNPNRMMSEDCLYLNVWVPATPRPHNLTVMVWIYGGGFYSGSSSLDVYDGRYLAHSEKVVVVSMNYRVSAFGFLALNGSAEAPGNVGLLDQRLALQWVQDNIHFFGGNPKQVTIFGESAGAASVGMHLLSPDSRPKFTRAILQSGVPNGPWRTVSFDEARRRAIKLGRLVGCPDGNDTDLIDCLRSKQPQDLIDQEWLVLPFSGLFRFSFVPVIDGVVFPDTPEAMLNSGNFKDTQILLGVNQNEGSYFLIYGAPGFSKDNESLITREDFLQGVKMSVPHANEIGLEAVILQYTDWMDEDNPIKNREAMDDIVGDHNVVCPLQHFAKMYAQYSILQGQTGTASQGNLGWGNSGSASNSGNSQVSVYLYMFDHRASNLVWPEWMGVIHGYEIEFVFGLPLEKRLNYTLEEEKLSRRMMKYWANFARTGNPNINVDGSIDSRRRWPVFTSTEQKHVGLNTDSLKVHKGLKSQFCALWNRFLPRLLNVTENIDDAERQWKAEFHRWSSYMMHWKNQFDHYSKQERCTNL
T3 sequence (Q29499 2-584): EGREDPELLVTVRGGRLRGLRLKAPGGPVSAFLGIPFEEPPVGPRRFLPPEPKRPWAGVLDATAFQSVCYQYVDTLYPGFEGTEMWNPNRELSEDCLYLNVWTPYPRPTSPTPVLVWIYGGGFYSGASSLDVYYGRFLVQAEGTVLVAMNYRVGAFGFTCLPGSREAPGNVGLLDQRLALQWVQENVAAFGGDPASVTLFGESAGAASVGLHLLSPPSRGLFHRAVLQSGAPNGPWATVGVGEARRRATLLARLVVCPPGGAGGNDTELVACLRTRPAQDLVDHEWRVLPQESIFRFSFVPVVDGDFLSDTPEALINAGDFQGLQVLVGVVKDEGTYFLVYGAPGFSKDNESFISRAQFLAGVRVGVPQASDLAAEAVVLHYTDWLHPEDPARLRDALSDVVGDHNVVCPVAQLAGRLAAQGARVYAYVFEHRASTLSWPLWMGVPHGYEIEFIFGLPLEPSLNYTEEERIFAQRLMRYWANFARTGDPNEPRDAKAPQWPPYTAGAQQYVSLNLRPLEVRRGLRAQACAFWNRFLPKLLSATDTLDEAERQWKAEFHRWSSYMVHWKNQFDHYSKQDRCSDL
T4 sequence (P81908 whole entry): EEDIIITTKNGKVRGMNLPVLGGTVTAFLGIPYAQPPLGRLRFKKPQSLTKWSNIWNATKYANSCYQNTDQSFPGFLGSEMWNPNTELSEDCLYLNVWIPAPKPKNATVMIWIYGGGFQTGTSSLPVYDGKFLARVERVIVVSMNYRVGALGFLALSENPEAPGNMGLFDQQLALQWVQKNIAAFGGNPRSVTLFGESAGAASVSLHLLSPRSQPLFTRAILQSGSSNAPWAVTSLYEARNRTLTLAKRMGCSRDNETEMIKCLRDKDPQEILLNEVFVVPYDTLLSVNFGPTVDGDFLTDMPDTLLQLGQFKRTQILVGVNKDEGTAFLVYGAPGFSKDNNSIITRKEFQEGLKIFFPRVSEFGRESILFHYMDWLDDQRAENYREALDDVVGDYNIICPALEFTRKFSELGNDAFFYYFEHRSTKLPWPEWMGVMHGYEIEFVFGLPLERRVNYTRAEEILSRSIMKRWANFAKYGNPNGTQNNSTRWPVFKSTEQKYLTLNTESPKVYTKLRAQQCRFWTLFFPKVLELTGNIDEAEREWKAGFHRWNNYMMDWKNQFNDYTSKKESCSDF

Row | SMILES | Ki [1, 7] [nM] | Ki [2, 8] [nM] | Ki [3, 9] [nM] | Ki [4, 10] [nM] | Type of inhibition of AChE [5] | Type of inhibition of BChE [6] | fold more active on hBChE than neostigmine ([4]; ratio of Ki values versus neostigmine) [fold] | Ki [1] [nM] | Ki [2] [nM] | Ki [3] [nM] | Ki [4] [nM]
1 | O=c1oc2ccccc2cc1-c1n[nH]c(=S)n1-c1ccccc1Cl [Compound 3a, 3-(4-(2-Chlorophenyl)-5-thioxo-4,5-dihydro-1H-1,2,4-triazol-3-yl)-2H-chromen-2-one] | 2420 ± 430 | 21400 ± 1600 | 470 ± 70 | 190 ± 10 |  |  |  |  |  |  | 
2 | O=c1oc2ccccc2cc1-c1nnc(Nc2cccc(Cl)c2)s1 [Compound 4b, 3-(5-(3-Chlorophenylamino)-1,3,4-thiadiazol-2-yl)-2H-chromen-2-one] | 280 ± 70 | 2260 ± 20 | 28 ± 2 | 540 ± 90 | competitive inhibitor | competitive inhibitor |  |  |  |  | 
3 | O=c1oc2ccccc2cc1-c1n[nH]c(=S)n1-c1ccc(Cl)cc1 [Compound 3c, 3-(4-(4-Chlorophenyl)-5-thioxo-4,5-dihydro-1H-1,2,4-triazol-3-yl)-2H-chromen-2-one] | 450 ± 90 | 520 ± 30 | 13 ± 2 | 1340 ± 20 |  |  |  |  |  |  | 
4 | Cc1ccc(-n2c(-c3cc4ccccc4oc3=O)n[nH]c2=S)cc1 [Compound 3e, 3-(5-Thioxo-4-p-tolyl-4,5-dihydro-1H-1,2,4-triazol-3-yl)-2H-chromen-2-one] | 18400 ± 3400 | 140 ± 50 | 39 ± 2 | 130 ± 10 |  |  |  |  |  |  | 
5 | Cc1cccc(Nc2nnc(-c3cc4ccccc4oc3=O)s2)c1 [Compound 4d, 3-(5-(m-Toluidino)-1,3,4-thiadiazol-2-yl)-2H-chromen-2-one] | 28000 ± 1630 | 510 ± 10 | 17 ± 2 | 660 ± 10 |  |  |  |  |  |  | 
6 | O=c1oc2ccccc2cc1-c1n[nH]c(=S)n1-c1cccc(Cl)c1 [Compound 3b, 3-(4-(3-Chlorophenyl)-5-thioxo-4,5-dihydro-1H-1,2,4-triazol-3-yl)-2H-chromen-2-one] | 320 ± 70 | 65700 ± 2000 | 600 ± 30 | 36 ± 3 |  |  | 2 |  |  |  | 
7 | COc1ccccc1Nc1nnc(-c2cc3ccccc3oc2=O)s1 [Compound 4f, 3-(5-(2-Methoxyphenylamino)-1,3,4-thiadiazol-2-yl)-2H-chromen-2-one] | 7160 ± 10 | 1360 ± 30 | 81 ± 1 | 230 ± 10 |  |  |  |  |  |  | 
8 | O=c1oc2ccccc2cc1-c1nnc(Nc2ccccc2Cl)s1 [Compound 4a, 3-(5-(2-Chlorophenylamino)-1,3,4-thiadiazol-2-yl)-2H-chromen-2-one] | 5750 ± 780 | 1390 ± 20 | 31 ± 8 | 100 ± 10 |  |  |  |  |  |  | 
9 | CN(C)C(=O)Oc1cccc([N+](C)(C)C)c1 [Neostigmine, neostigmine methylsulfate, reference compound] |  |  |  |  |  |  |  | 56 ± 6 | 47 ± 6 | 48 ± 3 | 60 ± 5
10 | COc1cccc(-n2c(-c3cc4ccccc4oc3=O)n[nH]c2=S)c1 [Compound 3g, 3-(4-(3-Methoxyphenyl)-5-thioxo-4,5-dihydro-1H-1,2,4-triazol-3-yl)-2H-chromen-2-one] | 980 ± 340 | 22100 ± 200 | 46 ± 2 | 7550 ± 30 |  |  |  |  |  |  | 
11 | O=c1oc2ccccc2cc1-c1nnc(Nc2ccc(Cl)cc2)s1 [Compound 4c, 3-(5-(4-Chlorophenylamino)-1,3,4-thiadiazol-2-yl)-2H-chromen-2-one] | 48600 ± 4400 | 350 ± 10 | 240 ± 21 | 420 ± 10 |  |  |  |  |  |  | 
12 | COc1ccccc1-n1c(-c2cc3ccccc3oc2=O)n[nH]c1=S [Compound 3f, 3-(4-(2-Methoxyphenyl)-5-thioxo-4,5-dihydro-1H-1,2,4-triazol-3-yl)-2H-chromen-2-one] | 4060 ± 340 | 690 ± 20 | 61 ± 5 | 280 ± 10 |  |  |  |  |  |  | 
13 | Cc1cccc(-n2c(-c3cc4ccccc4oc3=O)n[nH]c2=S)c1 [Compound 3d, 3-(5-Thioxo-4-m-tolyl-4,5-dihydro-1H-1,2,4-triazol-3-yl)-2H-chromen-2-one] | 5770 ± 310 | 1110 ± 50 | 82 ± 2 | 180 ± 20 |  |  |  |  |  |  | 
14 | Cc1ccc(Nc2nnc(-c3cc4ccccc4oc3=O)s2)cc1 [Compound 4e, 3-(5-(p-Toluidino)-1,3,4-thiadiazol-2-yl)-2H-chromen-2-one] | 6190 ± 290 | 460 ± 10 | 561 ± 22 | 280 ± 20 |  |  |  |  |  |  | 
15 | COc1cccc(Nc2nnc(-c3cc4ccccc4oc3=O)s2)c1 [Compound 4g, 3-(5-(3-Methoxyphenylamino)-1,3,4-thiadiazol-2-yl)-2H-chromen-2-one] | 8260 ± 10 | 1520 ± 30 | 21 ± 1 | 340 ± 10 |  |  |  |  |  |  | 
